Values after ≈ are worked out from the molar mass of the structure shown.
Columns and labels:
Str. faecalis A-20688 = test: MIC, tube dilution, Streptococcus faecalis A20688; assay type: cell-based; conditions: overnight 37° C.; for MIC: Enterococcus faecalis, A20688, Str. faecalis A20688, read-out: Minimum Inhibitory Concentration (M.I.C.)
Text: (§1) Representative compounds of the present invention were subjected to in vitro antibiotic screening against a variety of microorganisms.

Ser. marcescens A-20019 = test: MIC, tube dilution, Serratia marcescens A20019; assay type: cell-based; conditions: overnight 37° C.; for MIC: Serratia marcescens, A20019, Serratia marcescens A20019, read-out: Minimum Inhibitory Concentration (M.I.C.)
Text: as §1

Str. pneumoniae A-9585 = test: MIC, tube dilution, Streptococcus pneumoniae A9585; assay type: cell-based; conditions: overnight 37° C., Nutrient Broth; for MIC: Streptococcus pneumoniae, A9585, Str. pneumoniae A9585, read-out: Minimum Inhibitory Concentration (M.I.C.)
Text: as §1

Staph. aureus A-9537 = test: MIC, tube dilution, Staphylococcus aureus A9537; assay type: cell-based; conditions: overnight 37° C., Nutrient Broth; for MIC: Staphylococcus aureus, A9537, Staph. aureus A9537, read-out: Minimum Inhibitory Concentration (M.I.C.)
Text: as §1

Pr. morganii A-15153 = test: MIC, tube dilution, Proteus morganii A15153; assay type: cell-based; conditions: overnight 37° C.; for MIC: Morganella morganii, A15153, Proteus morganii A15153, read-out: Minimum Inhibitory Concentration (M.I.C.)
Text: as §1

Proteus rettgeri A21203 = test: MIC, tube dilution, Proteus rettgeri A21203; assay type: cell-based; conditions: overnight 37° C.; for MIC: Providencia rettgeri, A21203, Proteus rettgeri A21203, read-out: Minimum Inhibitory Concentration (M.I.C.)
Text: as §1

E. coli A-15119 = test: MIC, tube dilution, Escherichia coli A15119; assay type: cell-based; conditions: overnight 37° C.; for MIC: Escherichia coli, A15119, E. coli A15119, read-out: Minimum Inhibitory Concentration (M.I.C.)
Text: as §1

Ent. cloacae A-9659 = test: MIC, tube dilution, Enterobacter cloacae A9659; assay type: cell-based; conditions: overnight 37° C.; for MIC: Enterobacter cloacae, A9659, Enterobacter cloacae A9659, read-out: Minimum Inhibitory Concentration (M.I.C.)
Text: as §1

Proteus vulgaris A21559 = test: MIC, tube dilution, Proteus vulgaris A21559; assay type: cell-based; conditions: overnight 37° C.; for MIC: Proteus vulgaris, A21559, Proteus vulgaris A21559, read-out: Minimum Inhibitory Concentration (M.I.C.)
Text: as §1

Str. pyogenes A-9604 = test: MIC, tube dilution, Streptococcus pyogenes A9604; assay type: cell-based; conditions: overnight 37° C., Nutrient Broth; for MIC: Streptococcus pyogenes, A9604, Str. pyogenes A9604, read-out: Minimum Inhibitory Concentration (M.I.C.)
Text: as §1

Ps. aeruginosa A-9843A = test: MIC, tube dilution, Pseudomonas aeruginosa A9843A; assay type: cell-based; conditions: overnight 37° C.; for MIC: Pseudomonas aeruginosa, A9843A, read-out: Minimum Inhibitory Concentration (M.I.C.), Pseudomonas aeruginosa A9843A
Text: as §1

K. pneumoniae A-15130 = test: MIC, tube dilution, Klebsiella pneumoniae A15130; assay type: cell-based; conditions: overnight 37° C.; for MIC: Klebsiella pneumoniae, A15130, K. pneumoniae A15130, read-out: Minimum Inhibitory Concentration (M.I.C.)
Text: as §1

Ps. aeruginosa A-21213 = test: MIC, tube dilution, Pseudomonas aeruginosa A21213; assay type: cell-based; conditions: overnight 37° C.; for MIC: Pseudomonas aeruginosa, A21213, Pseudomonas aeruginosa A21213, read-out: Minimum Inhibitory Concentration (M.I.C.)
Text: as §1

Ent. cloacae A-9656 = test: MIC, tube dilution, Enterobacter cloacae A9656; assay type: cell-based; conditions: overnight 37° C.; for MIC: Enterobacter cloacae, A9656, Enterobacter cloacae A9656, read-out: Minimum Inhibitory Concentration (M.I.C.)
Text: as §1

[1] = tested on: Klebsiella species A20468; test: MIC, tube dilution, Klebsiella species A20468; assay type: cell-based; conditions: Klebsiella species (K. pneumoniae) A20468, overnight 37° C.; for MIC: read-out: Minimum Inhibitory Concentration (M.I.C.)
Text: as §1

[2] = tested on: Staph. aureus (Meth-Res) A-15097; test: MIC, tube dilution, Staphylococcus aureus A15097 (Meth-Res); assay type: cell-based; conditions: Staph. aureus A15097 (Meth-Res), overnight 37° C.; for MIC: Staphylococcus aureus, read-out: Minimum Inhibitory Concentration (M.I.C.)
Text: as §1

[3] = tested on: Staph. aureus (Pen-Res) A-9606; test: MIC, tube dilution, Staphylococcus aureus A9606 (Pen-Res); assay type: cell-based; conditions: Staph. aureus A9606 (Pen-Res), overnight 37° C.; for MIC: Staphylococcus aureus, read-out: Minimum Inhibitory Concentration (M.I.C.)
Text: as §1

E. coli A-20341-1 = test: MIC, tube dilution, Escherichia coli A20341-1; assay type: cell-based; conditions: overnight 37° C.; for MIC: Escherichia coli, A203411, E. coli A20341-1, read-out: Minimum Inhibitory Concentration (M.I.C.)
Text: as §1

[4] = tested on: Staph. aureus A-9537 and 50% serum; test: MIC, tube dilution, Staph. aureus A9537 + 50% serum; assay type: cell-based, Staphylococcus aureus; conditions: overnight 37° C.; for MIC: Staphylococcus aureus, read-out: Minimum Inhibitory Concentration (M.I.C.)
Text: as §1

Pr. mirabilis A-9900 = test: MIC, tube dilution, Proteus mirabilis A9900; assay type: cell-based; conditions: overnight 37° C.; for MIC: Proteus mirabilis, A9900, Proteus mirabilis A9900, read-out: Minimum Inhibitory Concentration (M.I.C.)
Text: as §1

Row | Compound | MIC (Str. faecalis A-20688) | MIC (Ser. marcescens A-20019) | MIC (Str. pneumoniae A-9585) | MIC (Staph. aureus A-9537) | MIC (Pr. morganii A-15153) | MIC (Proteus rettgeri A21203) | MIC (E. coli A-15119) | MIC (Ent. cloacae A-9659) | MIC (Proteus vulgaris A21559) | MIC (Str. pyogenes A-9604) | MIC (Ps. aeruginosa A-9843A) | MIC (K. pneumoniae A-15130) | MIC (Ps. aeruginosa A-21213) | MIC (Ent. cloacae A-9656) | MIC [1] | MIC [2] | MIC [3] | MIC (E. coli A-20341-1) | MIC [4] | MIC (Pr. mirabilis A-9900) | further results
1 | CC1=C(C(=O)O)N2C(=O)[C@H]([C@H]3COC(C)(C)O3)[C@H]2S1 (relative stereo) [Example 104, (4'S,5R,6S and 4'R,5S,6R) 6-(2',2'-Dimethyl-1',3'-dioxolan-4'-yl)-2-methylpenem-3-carboxylic Acid (Isomer B)] | 63 µg/mL (≈ 221 µM) | > 63 µg/mL | 16 µg/mL (≈ 56.1 µM) | 63 µg/mL (≈ 221 µM) | > 63 µg/mL | 63 µg/mL (≈ 221 µM) | > 63 µg/mL | > 63 µg/mL | > 63 µg/mL | 32 µg/mL (≈ 112 µM) | 63 µg/mL (≈ 221 µM) | > 63 µg/mL | 63 µg/mL (≈ 221 µM) | > 63 µg/mL | > 63 µg/mL | 63 µg/mL (≈ 221 µM) | 63 µg/mL (≈ 221 µM) | > 63 µg/mL | > 32 µg/mL | > 63 µg/mL | –
2 | COCOC[C@H](O)[C@H]1C(=O)N2C(C(=O)O)=C(C)S[C@H]12 (relative stereo) [Example 105, (1'R,5R,6S and 1'S,5S,6R) 6-(1'-Hydroxy-2'-methoxymethoxy-2'-ethyl)-2-methylpenem-3-carboxylic acid (Isomer C)] | > 63 µg/mL | > 63 µg/mL | 4 µg/mL (≈ 13.8 µM) | > 8 µg/mL | > 63 µg/mL | 32 µg/mL (≈ 111 µM) | 63 µg/mL (≈ 218 µM) | 63 µg/mL (≈ 218 µM) | > 63 µg/mL | 4 µg/mL (≈ 13.8 µM) | 63 µg/mL (≈ 218 µM) | 63 µg/mL (≈ 218 µM) | 63 µg/mL (≈ 218 µM) | 63 µg/mL (≈ 218 µM) | > 63 µg/mL | > 63 µg/mL | 63 µg/mL (≈ 218 µM) | 63 µg/mL (≈ 218 µM) | > 32 µg/mL | > 63 µg/mL | –
3 | COCOC[C@@H](O)[C@H]1C(=O)N2C(C(=O)O)=C(C)S[C@H]12 (relative stereo) [Example 106, (1'S,5R,6S and 1'R,5S,6R) 6-(1'-Hydroxy-2'-methoxymethoxy-2'-ethyl)-2-methylpenem-3-carboxylic acid (Isomer B)] | > 63 µg/mL | 63 µg/mL (≈ 218 µM) | 32 µg/mL (≈ 111 µM) | 63 µg/mL (≈ 218 µM) | > 63 µg/mL | 63 µg/mL (≈ 218 µM) | 63 µg/mL (≈ 218 µM) | > 63 µg/mL | > 63 µg/mL | 32 µg/mL (≈ 111 µM) | 63 µg/mL (≈ 218 µM) | > 63 µg/mL | 63 µg/mL (≈ 218 µM) | 63 µg/mL (≈ 218 µM) | > 63 µg/mL | > 63 µg/mL | > 63 µg/mL | 63 µg/mL (≈ 218 µM) | > 32 µg/mL | 63 µg/mL (≈ 218 µM) | –
4 | NC1CCC(C2=C(C(=O)O)N3C(=O)C[C@H]3S2)C1 (single isomer, unassigned) [98 isomer C, 2-(3-Aminocyclopentyl)-penem-3-carboxylic acid] | – | – | – | – | – | – | – | – | – | – | – | – | – | – | – | – | – | – | – | – | Minimum Inhibitory Concentration (M.I.C.) (Str. faecalis A-20688; Str. faecalis A20688): 32 µg/mL; Minimum Inhibitory Concentration (M.I.C.) (Ser. marcescens A-20019; Serratia marcescens A20019): 8 µg/mL; Minimum Inhibitory Concentration (M.I.C.) (Str. pneumoniae A-9585; Str. pneumoniae A9585): .06 µg/mL; Minimum Inhibitory Concentration (M.I.C.) (Staph. aureus A-9537; Staph. aureus A9537): .13 µg/mL; Minimum Inhibitory Concentration (M.I.C.) (Pr. morganii A-15153; Proteus morganii A15153): 16 µg/mL; Minimum Inhibitory Concentration (M.I.C.) (Proteus rettgeri A21203; Proteus rettgeri A21203): 4 µg/mL; Minimum Inhibitory Concentration (M.I.C.) (E. coli A-15119; E. coli A15119): 2 µg/mL; Minimum Inhibitory Concentration (M.I.C.) (Ent. cloacae A-9659; Enterobacter cloacae A9659): 16 µg/mL; Minimum Inhibitory Concentration (M.I.C.) (Proteus vulgaris A21559; Proteus vulgaris A21559): 16 µg/mL; Minimum Inhibitory Concentration (M.I.C.) (Str. pyogenes A-9604; Str. pyogenes A9604): .06 µg/mL; Minimum Inhibitory Concentration (M.I.C.) (Ps. aeruginosa A-9843A; Pseudomonas aeruginosa A9843A): 32 µg/mL; Minimum Inhibitory Concentration (M.I.C.) (K. pneumoniae A-15130; K. pneumoniae A15130): 8 µg/mL; Minimum Inhibitory Concentration (M.I.C.) (Ps. aeruginosa A-21213; Pseudomonas aeruginosa A21213): > 63 µg/mL; Minimum Inhibitory Concentration (M.I.C.) (Ent. cloacae A-9656; Enterobacter cloacae A9656): 8 µg/mL; Minimum Inhibitory Concentration (M.I.C.) [1]: > 63 µg/mL; Minimum Inhibitory Concentration (M.I.C.) [2]: > 63 µg/mL; Minimum Inhibitory Concentration (M.I.C.) [3]: > 63 µg/mL; Minimum Inhibitory Concentration (M.I.C.) (E. coli A-20341-1; E. coli A20341-1): 16 µg/mL; Minimum Inhibitory Concentration (M.I.C.) [4]: 4 µg/mL; Minimum Inhibitory Concentration (M.I.C.) (Pr. mirabilis A-9900; Proteus mirabilis A9900): 8 µg/mL
5 | CC(N)=NCC1=C(C(=O)O)N2C(=O)CC2S1 (stereo not drawn) [16 (5)] | > 63 µg/mL | 32 µg/mL (≈ 133 µM) | 1 µg/mL (≈ 4.14 µM) | 4 µg/mL (≈ 16.6 µM) | 16 µg/mL (≈ 66.3 µM) | 32 µg/mL (≈ 133 µM) | 16 µg/mL (≈ 66.3 µM) | 63 µg/mL (≈ 261 µM) | 63 µg/mL (≈ 261 µM) | 2 µg/mL (≈ 8.29 µM) | 16 µg/mL (≈ 66.3 µM) | 63 µg/mL (≈ 261 µM) | 32 µg/mL (≈ 133 µM) | 63 µg/mL (≈ 261 µM) | > 63 µg/mL | 63 µg/mL (≈ 261 µM) | 32 µg/mL (≈ 133 µM) | > 63 µg/mL | 32 µg/mL | 8 µg/mL (≈ 33.2 µM) | –
6 | NC=NCC1=C(C(=O)O)N2C(=O)CC2S1 (stereo not drawn) [16 (6)] | 125 µg/mL (≈ 550 µM) | 63 µg/mL (≈ 277 µM) | 2 µg/mL (≈ 8.8 µM) | 4 µg/mL (≈ 17.6 µM) | 32 µg/mL (≈ 141 µM) | 32 µg/mL (≈ 141 µM) | 16 µg/mL (≈ 70.4 µM) | 63 µg/mL (≈ 277 µM) | 32 µg/mL (≈ 141 µM) | 4 µg/mL (≈ 17.6 µM) | 32 µg/mL (≈ 141 µM) | 125 µg/mL (≈ 550 µM) | > 125 µg/mL | 63 µg/mL (≈ 277 µM) | > 125 µg/mL | 63 µg/mL (≈ 277 µM) | 125 µg/mL (≈ 550 µM) | 125 µg/mL (≈ 550 µM) | 63 µg/mL | 16 µg/mL (≈ 70.4 µM) | –

From US4272437A, “Antibacterial agents, and 4-thio azetidinone intermediates” (priority 1979, dated 1981)
